{"source": "paper PMC4567403", "about": "(Bioorganic & medicinal chemistry letters, 2015)", "key": {"P450 2C9": {"molecular_target": "P450 2C9 (Homo sapiens, UniProt P11712)", "sequence (P11712 whole entry)": "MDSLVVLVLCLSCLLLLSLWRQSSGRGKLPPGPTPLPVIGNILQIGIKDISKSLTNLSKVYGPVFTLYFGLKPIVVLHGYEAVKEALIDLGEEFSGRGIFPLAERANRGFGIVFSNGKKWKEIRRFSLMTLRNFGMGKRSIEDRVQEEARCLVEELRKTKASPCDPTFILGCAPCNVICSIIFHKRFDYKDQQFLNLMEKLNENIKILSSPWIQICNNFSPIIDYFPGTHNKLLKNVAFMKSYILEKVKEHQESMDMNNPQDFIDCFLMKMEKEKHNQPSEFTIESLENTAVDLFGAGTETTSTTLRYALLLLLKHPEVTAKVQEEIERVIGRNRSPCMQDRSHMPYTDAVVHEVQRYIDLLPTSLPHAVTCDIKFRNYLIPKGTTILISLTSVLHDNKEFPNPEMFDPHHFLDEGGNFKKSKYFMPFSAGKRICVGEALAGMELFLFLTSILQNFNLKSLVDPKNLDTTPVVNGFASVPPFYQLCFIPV", "test": "P450 inhibition 2C9", "type": "in vitro ADME", "conditions": "2C9, at 30 μM"}, "[1]": {"test": "Microsomal intrinsic clearance, mouse", "type": "in vitro ADME", "conditions": "in words"}, "P450 2D6": {"molecular_target": "P450 2D6 (Homo sapiens, UniProt P10635)", "sequence (P10635 whole entry)": "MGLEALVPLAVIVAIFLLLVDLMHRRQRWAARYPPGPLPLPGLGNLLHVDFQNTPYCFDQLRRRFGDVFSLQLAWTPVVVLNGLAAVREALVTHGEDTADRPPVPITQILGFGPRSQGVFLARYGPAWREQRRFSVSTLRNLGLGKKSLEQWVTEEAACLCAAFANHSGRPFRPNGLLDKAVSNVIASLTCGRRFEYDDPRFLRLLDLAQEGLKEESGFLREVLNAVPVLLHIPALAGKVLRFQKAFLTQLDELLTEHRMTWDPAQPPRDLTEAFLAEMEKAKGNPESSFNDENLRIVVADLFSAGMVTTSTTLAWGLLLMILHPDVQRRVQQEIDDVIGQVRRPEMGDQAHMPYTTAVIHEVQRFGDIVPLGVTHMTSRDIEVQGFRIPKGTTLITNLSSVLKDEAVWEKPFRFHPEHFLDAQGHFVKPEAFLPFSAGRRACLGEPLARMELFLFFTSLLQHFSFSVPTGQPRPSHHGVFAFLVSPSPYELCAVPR", "test": "P450 inhibition 2D6", "type": "in vitro ADME", "conditions": "2D6, at 30 μM"}, "SW620 cell lines": {"system": "SW620 cell lines", "conditions": "cited from earlier work"}, "P450 1A2": {"molecular_target": "T1, P450 1A2 (Homo sapiens, UniProt P05177)", "T1 sequence (P05177 1-516)": "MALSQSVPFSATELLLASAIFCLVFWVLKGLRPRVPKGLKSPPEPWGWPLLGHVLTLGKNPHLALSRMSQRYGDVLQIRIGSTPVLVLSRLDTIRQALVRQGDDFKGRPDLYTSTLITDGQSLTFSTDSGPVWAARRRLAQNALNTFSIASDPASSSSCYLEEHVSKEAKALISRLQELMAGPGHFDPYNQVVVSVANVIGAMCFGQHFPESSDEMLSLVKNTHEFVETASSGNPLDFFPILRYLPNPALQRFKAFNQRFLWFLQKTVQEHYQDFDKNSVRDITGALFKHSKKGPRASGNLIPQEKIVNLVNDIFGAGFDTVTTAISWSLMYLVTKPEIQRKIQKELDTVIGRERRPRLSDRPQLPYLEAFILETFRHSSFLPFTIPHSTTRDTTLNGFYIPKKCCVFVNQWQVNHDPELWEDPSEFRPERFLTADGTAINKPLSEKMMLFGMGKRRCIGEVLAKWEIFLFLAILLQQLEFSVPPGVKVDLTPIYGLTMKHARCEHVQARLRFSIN", "test": "P450 inhibition 1A2", "type": "in vitro ADME", "conditions": "1A2, at 30 μM"}, "P450 3A4": {"molecular_target": "P450 3A4 (Homo sapiens, UniProt P08684)", "sequence (P08684 whole entry)": "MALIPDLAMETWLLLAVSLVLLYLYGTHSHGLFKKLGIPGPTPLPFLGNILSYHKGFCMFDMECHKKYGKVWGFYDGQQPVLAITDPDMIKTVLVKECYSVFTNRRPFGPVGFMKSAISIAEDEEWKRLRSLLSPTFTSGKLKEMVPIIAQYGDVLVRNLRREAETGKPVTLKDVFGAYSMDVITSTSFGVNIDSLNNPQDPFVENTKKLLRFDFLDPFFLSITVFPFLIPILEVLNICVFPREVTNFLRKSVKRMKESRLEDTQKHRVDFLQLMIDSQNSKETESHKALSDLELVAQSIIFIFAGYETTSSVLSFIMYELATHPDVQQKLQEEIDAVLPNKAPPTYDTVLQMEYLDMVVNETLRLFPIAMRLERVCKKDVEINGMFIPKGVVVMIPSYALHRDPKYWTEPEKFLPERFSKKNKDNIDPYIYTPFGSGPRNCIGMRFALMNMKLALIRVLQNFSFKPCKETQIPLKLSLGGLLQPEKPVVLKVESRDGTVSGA", "test": "P450 inhibition 3A4", "type": "in vitro ADME", "conditions": "3A4, at 30 μM"}, "Pharmacokinetics in rat": {"test": "Pharmacokinetics in rat", "type": "in vivo, male Sprauge- Dawley rats"}, "[2]": {"test": "Microsomal intrinsic clearance, human", "type": "in vitro ADME", "conditions": "human microsomal studies, in words"}, "[3]": {"system": "e-cadherin expression in SW620 cells", "test": "In-Cell-Western", "type": "cell-based", "conditions": "10 μM compound, average of two assessments"}}}
{"smiles": "O=C(NCCCCNC(=O)c1cccnc1O)c1cc(-c2ccccc2)on1", "note": "[11r]", "values": [{"measurement": "inhibition of P450 isozyme", "setting": "P450 2C9", "result": "No inhibition"}, {"measurement": "mouse clearance", "setting": "[1]", "result": "well in excess of hepatic blood flow"}, {"measurement": "inhibition of P450 isozyme", "setting": "P450 2D6", "result": "No inhibition"}, {"measurement": "EMT phenotype", "setting": "SW620 cell lines", "result": "capable of reversing the EMT phenotype"}, {"measurement": "invasive potential", "setting": "SW620 cell lines", "result": "reducing the invasive potential"}, {"measurement": "inhibition of P450 isozyme", "setting": "P450 1A2", "result": "No inhibition"}, {"measurement": "inhibition of P450 isozyme", "setting": "P450 3A4", "result": "No inhibition"}, {"measurement": "exposure", "setting": "Pharmacokinetics in rat; IV and IP dosing", "result": "suitable"}, {"measurement": "half life", "setting": "Pharmacokinetics in rat; IV dose in rat, 1 mg/kg", "result": "long"}, {"measurement": "intrinsic clearance", "setting": "[2]", "result": "neglible"}]}
{"smiles": "O=C(NCCCn1ccnc1)c1noc2ccccc12", "note": "[compound 3]", "values": [{"measurement": "Fold change of e-cadherin expression", "setting": "[3]", "result": "failed to demonstrate significant restoration"}]}
{"smiles": "O=C(NCCCN1CCOCC1)c1n[nH]c2ccccc12", "note": "[compound 4]", "values": [{"measurement": "Fold change of e-cadherin expression", "setting": "[3]", "result": "failed to demonstrate significant restoration"}]}
{"smiles": "Cn1nc(C(=O)NCCCCc2ccncc2)cc1-c1ccccc1", "note": "[compound 5]", "values": [{"measurement": "Fold change of e-cadherin expression", "setting": "[3]", "result": "failed to demonstrate significant restoration"}]}
{"smiles": "Cc1c(C(=O)NCCCCc2ccncc2)nn(C)c1-c1ccccc1", "note": "[compound 6]", "values": [{"measurement": "Fold change of e-cadherin expression", "setting": "[3]", "result": "failed to demonstrate significant restoration"}]}
{"smiles": "CC(CNC(=O)c1cc(-c2cccs2)on1)c1ccncc1", "note": "(stereo not drawn) [compound 7]", "values": [{"measurement": "Fold change of e-cadherin expression", "setting": "[3]", "result": "failed to demonstrate significant restoration"}]}
